Test results from patent US20260042764A1, “COMPOSITIONS AND METHODS FOR INHIBITION OF KRAS” (TheRas, Inc., priority 2022, published 2026).

How the values were obtained:
GP2d cells (KRAS G12D) = assay: Cell-based pERK HTRF assay in GP2d cell (Biological Example 2); settings: GP2d (KRAS G12D) cells, pERK HTRF
Summary of the method: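 HTRF read-out of pERK (excitation 320 nm, emission 615 nm) after lysates sat 4–24 h at room temperature with Eu cryptate and d2 antibodies.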

[1] = target: T1, Avi-KRAS G12V (1-169) GppNHp/RAF1 RBD-3xFLAG (52-151) (Homo sapiens, UniProt P01116, G12V); assay: Raf1-KRAS G12V-GppNHP disruption HTRF assay (Biological Example 1); type: binding
T1 construct: Avi-KRAS G12V (1-169)
T1 sequence (P01116 1-169 isoform P01116-2 G12V): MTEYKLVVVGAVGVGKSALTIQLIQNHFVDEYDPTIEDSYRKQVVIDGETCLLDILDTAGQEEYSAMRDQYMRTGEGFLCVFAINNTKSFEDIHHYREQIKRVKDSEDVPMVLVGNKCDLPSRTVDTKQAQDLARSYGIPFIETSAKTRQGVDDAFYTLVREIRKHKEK
Summary of the method: (§1)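 Compounds were tested for disruption of KRAS–RAF1 RBD binding by HTRF in 50 mM Tris pH 7.5, 100 mM NaCl, 5 mM MgCl2, 0.1% BSA, 0.01% Tween, 10% DMSO. Protein mix was incubated 1 h at room temperature with shaking, then detection reagents added for another 1 h. Activity expressed as percent of DMSO control.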

[2] = target: T2, Avi-KRAS G12R (1-169) GppNHp/RAF1 RBD-3xFLAG (52-151) (Homo sapiens, UniProt P01116, G12R); assay: Raf1-KRAS G12R-GppNHP disruption HTRF assay (Biological Example 1); type: binding
T2 construct: Avi-KRAS G12R (1-169)
T2 sequence (P01116 1-169 isoform P01116-2 G12R): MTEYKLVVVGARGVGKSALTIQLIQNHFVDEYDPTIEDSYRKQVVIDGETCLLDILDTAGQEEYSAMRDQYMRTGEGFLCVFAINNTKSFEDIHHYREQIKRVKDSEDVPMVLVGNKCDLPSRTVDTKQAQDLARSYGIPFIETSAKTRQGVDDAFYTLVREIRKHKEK
Summary of the method: as §1

SW620 cells (KRAS G12V) = assay: Cell-based pERK HTRF assay in SW620 cell (Biological Example 4); settings: pERK HTRF
Summary of the method: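 This assay measures inhibition of ERK phosphorylation downstream of KRAS G12V in intact SW620 cells. Compounds are applied for 4 h over nine half-log concentrations starting at 1 μM, and pERK is quantified by HTRF.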

[3] = target: T3, Avi-KRAS G12D (1-169) GppNHp/RAF1 RBD-3xFLAG (52-151) (Homo sapiens, UniProt P01116, G12D); assay: Raf1-KRAS G12D-GppNHP disruption HTRF assay (Biological Example 1); type: binding
T3 construct: Avi-KRAS G12D (1-169)
T3 sequence (P01116 1-169 isoform P01116-2 G12D): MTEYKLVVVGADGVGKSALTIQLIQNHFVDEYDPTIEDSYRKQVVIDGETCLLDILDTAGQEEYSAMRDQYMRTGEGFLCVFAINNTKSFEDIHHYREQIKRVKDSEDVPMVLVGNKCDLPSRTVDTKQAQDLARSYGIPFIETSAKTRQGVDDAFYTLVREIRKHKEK
Summary of the method: as §1

[4] = target: T4, Avi-KRAS WT (1-169) GppNHp/RAF1 RBD-3xFLAG (52-151) (Homo sapiens, UniProt P01116); assay: Raf1-KRAS WT-GppNHP disruption HTRF assay (Biological Example 1); type: binding
T4 construct: Avi-KRAS WT (1-169)
T4 sequence (P01116 1-169 isoform P01116-2): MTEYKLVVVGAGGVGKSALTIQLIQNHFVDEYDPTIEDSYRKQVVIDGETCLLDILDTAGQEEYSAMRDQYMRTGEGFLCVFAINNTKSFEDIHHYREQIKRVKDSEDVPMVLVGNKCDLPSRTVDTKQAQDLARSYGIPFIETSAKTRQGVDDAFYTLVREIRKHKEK
Summary of the method: as §1

[5] = Homo sapiens, SW-620, SW620 (KRAS G12V) cells
[6] = KRAS G12V, GppNHp-loaded, class symbols
[7] = KRAS G12R, GppNHp-loaded, class symbols
[8] = Homo sapiens, SW-620, SW620 (KRAS G12V) cells, class symbols
[9] = KRAS G12D, GppNHp-loaded, class symbols
[10] = KRAS WT, GppNHp-loaded, class symbols
[11] = KRAS G12V, GppNHp-loaded, Table 11
[12] = KRAS G12R, GppNHp-loaded, Table 11
[13] = KRAS G12D, GppNHp-loaded, Table 11
[14] = KRAS WT, GppNHp-loaded, Table 11

IC50 (GP2d cells (KRAS G12D); GP2d) [nM] | IC50 ([1]; KRAS G12V-GppNHp/RAF1 RBD HTRF) [nM] | IC50 ([2]; KRAS G12R-GppNHp/RAF1 RBD HTRF) [nM] | IC50 (SW620 cells (KRAS G12V); [5]) [nM] | IC50 ([3]; KRAS G12D-GppNHp/RAF1 RBD HTRF) [nM] | IC50 ([4]; KRAS WT-GppNHp/RAF1 RBD HTRF) [nM] | IC50 (GP2d cells (KRAS G12D); GP2d, class symbols) [nM] | IC50 [1, 6] [nM] | IC50 [2, 7] [nM] | IC50 (SW620 cells (KRAS G12V); [8]) [nM] | IC50 [3, 9] [nM] | IC50 [4, 10] [nM] | Compound | also measured
< 100 | 100 to 1000 | < 100 | < 100 | < 100 | 100 to 1000 |  |  |  |  |  |  | CCC(=O)N1CC[C@H](N(CC)c2nc(OC[C@@]34CCCN3C[C@H](F)C4)nc3c(F)c(-c4ccc(F)c5sc(N)c(C#N)c45)c(C(F)(F)F)cc23)C1 [Compound 349] | 
< 100 |  |  | 100 to 1000 |  |  |  |  |  |  |  |  | CC(=O)N1C[C@@H](F)[C@H](N(C)c2nc(OC[C@@]34CCCN3C[C@H](F)C4)nc3c(F)c(-c4ccc(F)c5sc(N)c(C#N)c45)c(C(F)(F)F)cc23)C1 [Compound 186] | IC50 [1, 11]: 100 to 1000 nM; IC50 [2, 12]: 100 to 1000 nM; IC50 [3, 13]: 100 to 1000 nM; IC50 [4, 14]: 100 to 1000 nM
 | 1000 to 10000 | 1000 to 10000 |  | 100 to 1000 | 100 to 1000 |  |  |  |  |  |  | CCC(=O)N1CC(N(C)c2nc(OCC34CCCN3CC(F)C4)nc3c(F)c(-c4ccc(F)c5sc(N)c(C#N)c45)c(C(F)(F)F)cc23)CC1C (stereo not drawn) [Compound 444] | IC50 (GP2d cells (KRAS G12D)): < 100 nM; IC50 (SW620 cells (KRAS G12V); SW620 (KRAS G12V) cells): < 100 nM

Second part, the compound before the results:

Compound | IC50 (GP2d cells (KRAS G12D); GP2d) [nM] | IC50 ([1]; KRAS G12V-GppNHp/RAF1 RBD HTRF) [nM] | IC50 ([2]; KRAS G12R-GppNHp/RAF1 RBD HTRF) [nM] | IC50 (SW620 cells (KRAS G12V); [5]) [nM] | IC50 ([3]; KRAS G12D-GppNHp/RAF1 RBD HTRF) [nM] | IC50 ([4]; KRAS WT-GppNHp/RAF1 RBD HTRF) [nM] | IC50 (GP2d cells (KRAS G12D); GP2d, class symbols) [nM] | IC50 [1, 6] [nM] | IC50 [2, 7] [nM] | IC50 (SW620 cells (KRAS G12V); [8]) [nM] | IC50 [3, 9] [nM] | IC50 [4, 10] [nM] | also measured
CC(=O)N1CC[C@H]2[C@@H]1CN2c1nc(OC[C@@]23CCCN2C[C@H](F)C3)nc2c(F)c(-c3ccc(F)c4sc(N)c(C#N)c34)c(C(F)(F)F)cc12 (atropisomer, axis not shown) [Compound 641] |  |  |  |  |  |  | < 100 | 1000 to 10000 | 1000 to 10000 | < 100 | 1000 to 10000 | 100 to 1000 | 
CCN(c1nc(OC[C@@]23CCCN2C[C@H](F)C3)nc2c(F)c(-c3ccc(F)c4sc(N)c(C#N)c34)c(C(F)(F)F)cc12)[C@H]1CCN(C(=O)OCCF)C1 (atropisomer, axis not shown) [Compound 687] |  |  |  |  |  |  | < 100 | < 100 | < 100 | < 100 | < 100 | < 100 | 
CC(=O)N1CCCN(c2nc(OC[C@@]34CCCN3C[C@H](F)C4)nc3c(F)c(-c4ccc(F)c5sc(N)c(C#N)c45)c(C(F)(F)F)cc23)CC1 [Compound 278] | < 100 |  |  | < 100 |  |  |  |  |  |  |  |  | IC50 [1, 11]: 100 to 1000 nM; IC50 [2, 12]: 100 to 1000 nM; IC50 [3, 13]: 100 to 1000 nM; IC50 [4, 14]: 100 to 1000 nM
CC(C)C(=O)N1CC[C@H](N(CCF)c2nc(OC[C@@]34CCCN3C[C@H](F)C4)nc3c(F)c(-c4ccc(F)c5sc(N)c(C#N)c45)c(C(F)(F)F)cc23)C1 (atropisomer, axis not shown) [Compound 814] |  |  |  |  |  |  | < 100 | 100 to 1000 | < 100 | < 100 | < 100 | 100 to 1000 | 
COC1C2CN(c3nc(OC[C@@]45CCCN4C[C@H](F)C5)nc4c(F)c(-c5ccc(F)c6sc(N)c(C#N)c56)c(C(F)(F)F)cc34)C1CO2 (stereo partly drawn) [Compound 509] | < 100 | 100 to 1000 | 100 to 1000 | < 100 | 100 to 1000 | 100 to 1000 |  |  |  |  |  |  | 
N#Cc1c(N)sc2c(F)ccc(-c3c(C(F)(F)F)cc4c(N5CCS(=N)(=O)CC5)nc(OC[C@@]56CCCN5C[C@H](F)C6)nc4c3F)c12 [Compound 297] | < 100 | 100 to 1000 | 100 to 1000 | < 100 | 100 to 1000 | 100 to 1000 |  |  |  |  |  |  | 
CC(=O)N1CCC2[C@H]1CCN2c1nc(OC[C@@]23CCCN2C[C@H](F)C3)nc2c(F)c(-c3ccc(F)c4sc(N)c(C#N)c34)c(C(F)(F)F)cc12 (stereo partly drawn) [Compound 307] | < 100 | 1000 to 10000 | 1000 to 10000 | < 100 | 1000 to 10000 | 1000 to 10000 |  |  |  |  |  |  | 
CCN(c1nc(OC[C@@]23CCCN2C[C@H](F)C3)nc2c(F)c(-c3ccc(F)c4sc(N)c(C#N)c34)c(C(F)(F)F)cc12)[C@H]1CCN(C(=O)OCC2COC2)C1 (atropisomer, axis not shown) [Compound 639] |  |  |  |  |  |  | < 100 | < 100 | < 100 | < 100 | < 100 | < 100 | 
